Data: publication PMC3035770 (Biochemistry, 2011)
Read-outs that look alike come from different tables or passages of the source. Blank lines part the entries; values can stand above or below the compound they belong to.

Experiments:
[1] = target: T1, PKR (double-stranded RNA-activated protein kinase) (Homo sapiens, UniProt P19525); assay: radiolabeled ATP binding, ZipTip-C4 separation
[2] = target: T1, PKR (double-stranded RNA-activated protein kinase); assay: fluorescence polarization, direct titration; format: binding
[3] = target: bovine serum albumin (BSA) (Bos taurus, UniProt P02769); assay: fluorescence polarization, direct titration; format: binding
[4] = target: PKR (Homo sapiens) (UniProt P19525); details: cited from earlier work
[5] = target: PKR (Homo sapiens) (UniProt P19525); details: cited from earlier work; remark: listed apart in the source
[6] = target: PKR (Homo sapiens) (UniProt P19525); details: cited from earlier work; remark: listed apart in the source

bovine serum albumin (BSA), sequence (P02769 25-607): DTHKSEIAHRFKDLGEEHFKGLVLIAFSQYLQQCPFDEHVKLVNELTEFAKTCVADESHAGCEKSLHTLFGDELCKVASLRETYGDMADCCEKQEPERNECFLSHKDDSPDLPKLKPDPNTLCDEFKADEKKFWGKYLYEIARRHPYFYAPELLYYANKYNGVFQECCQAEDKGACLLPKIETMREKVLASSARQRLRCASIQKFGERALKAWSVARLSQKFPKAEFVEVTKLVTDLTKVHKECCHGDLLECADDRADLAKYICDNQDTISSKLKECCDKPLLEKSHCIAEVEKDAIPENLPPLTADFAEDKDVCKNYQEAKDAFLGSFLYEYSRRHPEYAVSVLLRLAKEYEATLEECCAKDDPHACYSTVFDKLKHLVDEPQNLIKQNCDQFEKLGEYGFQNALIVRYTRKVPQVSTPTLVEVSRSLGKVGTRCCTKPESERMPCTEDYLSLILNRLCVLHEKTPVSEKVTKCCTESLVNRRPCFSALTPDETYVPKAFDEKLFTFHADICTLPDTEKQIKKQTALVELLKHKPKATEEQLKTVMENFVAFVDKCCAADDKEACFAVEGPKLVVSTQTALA

Compound: Nc1ncnc2c1ncn2[C@@H]1O[C@H](COP(=O)(O)OP(=O)(O)OP(=O)(O)O)[C@@H](O)[C@H]1O [ATP]
% bound [1]: 16.61 % bound

Kd [2]: 0.0232 ± 0.00128 µM | Kd [3]: 0.0292 ± 0.00185 µM
Compound: CC1=CC(C)=[N+]2C1=Cc1ccc(CCCCCCCCCCCCCCCC(=O)O)n1[B-]2(F)F [Bodipy-C16, 4,4-difluoro-5,7-dimethyl-4-bora-3a,4a-diaza-s-indacene-3-hexadecanoic acid]

Compound: PKR (from UniProt P19525)
Kd [4]: 20 µM | Kd [5]: 75 µM | Kd [6]: 500 µM
